In ChEMBL document CHEMBL1201862, “PubChem BioAssay data set” (2004):
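Test compounds were applied to cells in 96-well plates for 48 hours at 5 doses. GI50: concentration for 50% inhibition of growth.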 Calls of active or inactive are those of the source. Rule as the data show it: active = GI50 up to about 1.1 µM and inactive = higher.

Assays:
Assay in all cases: DTP human tumour cell line panel, 48 h
SK-MEL-28 = system: SK-MEL-28
KM12 = system: KM12
MDA-MB-435 = system: MDA-MB-435
UACC-62 = system: UACC-62
A498 = system: A498
OVCAR-5 = system: OVCAR-5
LOX IMVI = system: LOX IMVI
HL-60 = system: HL-60
A549 = system: A549
UO-31 = system: UO-31
SNB-75 = system: SNB-75
NCI-H23 = system: NCI-H23
SK-OV-3 = system: SK-OV-3
Hs-578T = system: Hs-578T
T47D = system: T47D
RPMI-8226 = system: RPMI-8226
HOP-92 = system: HOP-92
K562 = system: K562
SN12C = system: SN12C
SK-MEL-2 = system: SK-MEL-2

Compound | GI50 (SK-MEL-28) | GI50 (KM12) | GI50 (MDA-MB-435) | GI50 (UACC-62) | GI50 (A498) | GI50 (OVCAR-5) | GI50 (LOX IMVI) | GI50 (HL-60) | GI50 (A549) | GI50 (UO-31) | GI50 (SNB-75) | GI50 (NCI-H23) | GI50 (SK-OV-3) | GI50 (Hs-578T) | GI50 (T47D) | GI50 (RPMI-8226) | GI50 (HOP-92) | GI50 (K562) | GI50 (SN12C) | GI50 (SK-MEL-2)
CNC(=O)CNC(=O)C(Cc1ccc(NC(=O)CCCCC(C)=O)cc1)NC(=O)C(CCC(=O)OCc1ccccc1)NC(=O)OC(C)(C)C (configuration not stated) | > 100 µM (inactive) | > 100 µM (inactive) | > 100 µM (inactive) | > 100 µM (inactive) | 48.3 µM (inactive) | > 100 µM (inactive) | > 100 µM (inactive) | > 100 µM (inactive) | > 100 µM (inactive) | > 100 µM (inactive) | > 100 µM (inactive) | > 100 µM (inactive) | > 100 µM (inactive) | > 100 µM (inactive) | > 100 µM (inactive) | > 100 µM (inactive) | > 100 µM (inactive) | > 100 µM (inactive) | > 100 µM (inactive) | 
CC(C)(C)OC(=O)N1N=CCC1c1ccccc1 (configuration not stated) |  | > 100 µM (inactive) | > 100 µM (inactive) | > 100 µM (inactive) | > 100 µM (inactive) | > 100 µM (inactive) | > 100 µM (inactive) | > 100 µM (inactive) | > 100 µM (inactive) | > 100 µM (inactive) | > 100 µM (inactive) | > 100 µM (inactive) | > 100 µM (inactive) | > 100 µM (inactive) | > 100 µM (inactive) | > 100 µM (inactive) | > 100 µM (inactive) | > 100 µM (inactive) | > 100 µM (inactive) | 
Cc1ccc(S(=O)(=O)N/N=C2\CC3CC4CCC2C4C3)cc1 (configuration not stated) | > 100 µM (inactive) | > 100 µM (inactive) | > 100 µM (inactive) | > 100 µM (inactive) | > 100 µM (inactive) | > 100 µM (inactive) | > 100 µM (inactive) | > 100 µM (inactive) | > 100 µM (inactive) | > 100 µM (inactive) | > 100 µM (inactive) | > 100 µM (inactive) | > 100 µM (inactive) | > 100 µM (inactive) | > 100 µM (inactive) | > 100 µM (inactive) | > 100 µM (inactive) | > 100 µM (inactive) | > 100 µM (inactive) | 
O=c1oc2ccccc2c2c(=O)c3ccc(OC/C(=N/O)c4ccc(Cl)cc4)cc3oc12 |  | 3.11 µM (inactive) | 2.47 µM (inactive) | 5.07 µM (inactive) | 3.15 µM (inactive) | 17.3 µM (inactive) | 11.8 µM (inactive) | 9.25 µM (inactive) | 13.2 µM (inactive) | 14.3 µM (inactive) |  | 18.4 µM (inactive) | 11.7 µM (inactive) | 8.3 µM (inactive) | 29.4 µM (inactive) | 11.7 µM (inactive) | 11 µM (inactive) | 2 µM (inactive) | 19.9 µM (inactive) | 4.85 µM (inactive)
CSc1ncc2c(n1)-c1ccccc1OC2NC(C)(C)C (configuration not stated) | > 100 µM (inactive) | > 100 µM (inactive) | > 100 µM (inactive) | 68.1 µM (inactive) | 2.62 µM (inactive) | 50.7 µM (inactive) | > 100 µM (inactive) | > 100 µM (inactive) | > 100 µM (inactive) | 63.4 µM (inactive) | 27.2 µM (inactive) | > 100 µM (inactive) | 91.2 µM (inactive) | 83.4 µM (inactive) | 55 µM (inactive) | 57.7 µM (inactive) | 31.8 µM (inactive) | > 100 µM (inactive) | > 100 µM (inactive) | 
Cc1cc(C(=C2C=CC(=N)C=C2)c2ccc(N)cc2)ccc1N [FUCHSIN, BASIC] | 8.2 µM (inactive) | 2.34 µM (inactive) | 4.08 µM (inactive) | 4.45 µM (inactive) | 32.5 µM (inactive) | 11.4 µM (inactive) | 2.25 µM (inactive) | 3.21 µM (inactive) | 3.38 µM (inactive) | 17.6 µM (inactive) |  | 2.98 µM (inactive) | 3.58 µM (inactive) | 0.494 µM (active) | 1.01 µM (active) | 2.42 µM (inactive) | 6.81 µM (inactive) | 2.79 µM (inactive) | 0.299 µM (active) | 3.18 µM (inactive)
